Assay results taken from the supplement of paper PMC11061612.

Assays:
[1] = test system: CA46 (Burkitt's Lymphoma); experiment: Bliss excess, mean over the matrix (fraction); higher = more synergy
Outline: (§1)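 Bliss excess equals the observed combination effect minus the expected value EA + EB − EA·EB, where EA and EB are the effects of each agent alone. Combination Emax is the second-highest inhibition within the matrix. Inhibition was scaled from CellTiter-Glo 2.0 luminescence, with 0 set by vehicle wells and 1 by blank wells, after 72 hours of two-drug dosing of cells plated in 1536-well plates.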

[2] = test system: DU-4475 (Breast Carcinoma); experiment: as above
Outline: as §1

[3] = test system: G-402 (Other Solid Carcinomas); experiment: as above
Outline: as §1

EB2 (Burkitt's Lymphoma) = experiment: as above
Outline: as §1

[4] = test system: MHH-ES-1 (Ewing's Sarcoma); experiment: as above
Outline: as §1

[5] = test system: HCC1428 (Breast Carcinoma); experiment: as above
Outline: as §1

[6] = test system: KYSE-220 (Esophageal Squamous Cell Carcinoma); experiment: as above
Outline: as §1

[7] = test system: NCI-H841 (Small Cell Lung Carcinoma); experiment: as above
Outline: as §1

[8] = test system: CAL-27 (Oral Cavity Carcinoma); experiment: as above
Outline: as §1

[9] = test system: HCC1395 (Breast Carcinoma); experiment: as above
Outline: as §1

MKN1 (Gastric Carcinoma) [10] = experiment: as above
Outline: as §1

WM1552C (Melanoma) = experiment: as above
Outline: as §1

[11] = test system: NCI-H841 (Small Cell Lung Carcinoma); experiment: combination Emax (second highest fraction inhibited in the dose matrix, 72 h); higher = more inhibition; extreme values may be limits of the assay
Outline: as §1

MKN1 (Gastric Carcinoma) [12] = experiment: as above
Outline: as §1

| Compound | Bliss excess [1] | Bliss excess [2] | Bliss excess [3] | Bliss excess (EB2 (Burkitt's Lymphoma)) | Bliss excess [4] | Bliss excess [5] | Bliss excess [6] | Bliss excess [7] | Bliss excess [8] | Bliss excess [9] | Bliss excess (MKN1 (Gastric Carcinoma) [10]) | Bliss excess (WM1552C (Melanoma)) | combination Emax [11] | combination Emax (MKN1 (Gastric Carcinoma) [12]) |
| --- | --- | --- | --- | --- | --- | --- | --- | --- | --- | --- | --- | --- | --- | --- |
| COc1nnc2ccc(N3CCC(c4ccc(OCCN5CCN(C)C(=O)[C@H]5C)cc4)CC3)nn12 [AZD5153] + C=CCn1c(=O)c2cnc(Nc3ccc(N4CCN(C)CC4)cc3)nc2n1-c1cccc(C(C)(C)O)n1 [AZD1775] (first compound max 1 µM, partner max 1 µM) | -0.0572 | 0.0311 | -0.0226 | -0.135 | -0.0662 | -0.0221 | -0.0622 | -0.0299 | -0.0481 | -0.113 | 0.0363 | -0.0776 | 0.503 | 0.926 |
| NC1(C(=O)N[C@@H](CCO)c2ccc(Cl)cc2)CCN(c2ncnc3[nH]ccc23)CC1 [Capivasertib] + Cn1cnc2c(F)c(Nc3ccc(Br)cc3Cl)c(C(=O)NOCCO)cc21 [Selumetinib] (first compound max 10 µM, 7x7, partner max 10 µM) | 0.0039 | 0.0066 | 0.0126 | -0.0049 | 0.0114 | 0.0149 | 0.0644 | 0.0115 | 0.0108 | 0.033 | 0.081 | 0.036 | 0.308 | 0.552 |
| CN(C)CCCOc1ccc(-c2ccc3ncc4c(c3c2)n(C2CCOCC2)c(=O)n4C)cn1 [AZD0156] + O=C(c1cc(Cc2n[nH]c(=O)c3ccccc23)ccc1F)N1CCN(C(=O)C2CC2)CC1 [Olaparib] (first compound max 3 µM, partner max 3 µM) | 0.0156 | 0.117 | 0.0571 | 0.0892 | 0.148 | 0.0051 | 0.191 | -0.0483 | 0.0602 | 0.0515 | 0.0242 | 0.0213 | 0.208 | 0.307 |
| Cn1cnc2c(F)c(Nc3ccc(Br)cc3Cl)c(C(=O)NOCCO)cc21 [Selumetinib] + C=CCn1c(=O)c2cnc(Nc3ccc(N4CCN(C)CC4)cc3)nc2n1-c1cccc(C(C)(C)O)n1 [AZD1775] (first compound max 10 µM, partner max 1 µM) | -0.0625 | -0.0196 | -0.073 | -0.071 | -0.0733 | -0.0409 | -0.0391 | -0.0536 | 0.0384 | -0.0333 | -0.0326 | -0.0674 | 0.217 | 0.782 |
| C=CCn1c(=O)c2cnc(Nc3ccc(N4CCN(C)CC4)cc3)nc2n1-c1cccc(C(C)(C)O)n1 [AZD1775] + C1CN(CCC1(C(=O)N[C@@H](CCO)C2=CC=C(C=C2)Cl)N)C3=NC=NC4=C3C=CN4 [Capivasertib] (first compound max 3 µM, partner max 3 µM) | -0.0101 | 0.0203 | -0.0346 | -0.0204 | -0.034 | -0.0203 | -0.0206 | -0.0788 | -0.0197 | -0.0085 | -0.0236 | 0.0306 | 0.676 | 0.821 |
| CC(=O)c1c(C)c2cnc(Nc3ccc(N4CCNCC4)cn3)nc2n(C2CCCC2)c1=O [Palbociclib] + CC1(C)CCC(CN2CCN(c3ccc(C(=O)NS(=O)(=O)c4ccc(NCC5CCOCC5)c([N+](=O)[O-])c4)c(Oc4cnc5[nH]ccc5c4)c3)CC2)=C(c2ccc(Cl)cc2)C1 [Venetoclax] (first compound max 10 µM, 7x7, partner max 1 µM) | -0.0004 | -0.0162 | 0.0369 | -0.044 | 0.0193 | -0.0378 | -0.081 | -0.0463 | -0.0483 | -0.0472 | -0.0394 | -0.0334 | 0.0903 | 0.249 |
| NC1(C(=O)N[C@@H](CCO)c2ccc(Cl)cc2)CCN(c2ncnc3[nH]ccc23)CC1 [Capivasertib] + CCN(CCO)CCCOc1ccc2c(Nc3cc(CC(=O)Nc4cccc(F)c4)[nH]n3)ncnc2c1 [AZD2811] (first compound max 10 µM, 7x7, partner max 1 µM) | -0.0519 | 0.0487 | -0.0502 | -0.0299 | -0.0132 | 0.0066 | -0.0154 | -0.0415 | -0.0783 | 0.001 | -0.0067 | -0.0378 | 0.426 | 0.531 |
